The source of these data is ChEMBL document CHEMBL1143793, “Solid-phase synthesis of Stat3 inhibitors incorporating O-carbamoylserine and O-carbamoylthreonine as glutamine mimics” (Bioorg Med Chem Lett, 2007).

The term IC50 denotes the concentration at which inhibition is half-maximal. Read a high IC50 as weaker potency.

This experiment deals with Signal transducer and activator of transcription 3 (Homo sapiens, UniProt P40763). Briefly: Inhibition of Stat3.
Chain of Signal transducer and activator of transcription 3 (P40763 whole entry): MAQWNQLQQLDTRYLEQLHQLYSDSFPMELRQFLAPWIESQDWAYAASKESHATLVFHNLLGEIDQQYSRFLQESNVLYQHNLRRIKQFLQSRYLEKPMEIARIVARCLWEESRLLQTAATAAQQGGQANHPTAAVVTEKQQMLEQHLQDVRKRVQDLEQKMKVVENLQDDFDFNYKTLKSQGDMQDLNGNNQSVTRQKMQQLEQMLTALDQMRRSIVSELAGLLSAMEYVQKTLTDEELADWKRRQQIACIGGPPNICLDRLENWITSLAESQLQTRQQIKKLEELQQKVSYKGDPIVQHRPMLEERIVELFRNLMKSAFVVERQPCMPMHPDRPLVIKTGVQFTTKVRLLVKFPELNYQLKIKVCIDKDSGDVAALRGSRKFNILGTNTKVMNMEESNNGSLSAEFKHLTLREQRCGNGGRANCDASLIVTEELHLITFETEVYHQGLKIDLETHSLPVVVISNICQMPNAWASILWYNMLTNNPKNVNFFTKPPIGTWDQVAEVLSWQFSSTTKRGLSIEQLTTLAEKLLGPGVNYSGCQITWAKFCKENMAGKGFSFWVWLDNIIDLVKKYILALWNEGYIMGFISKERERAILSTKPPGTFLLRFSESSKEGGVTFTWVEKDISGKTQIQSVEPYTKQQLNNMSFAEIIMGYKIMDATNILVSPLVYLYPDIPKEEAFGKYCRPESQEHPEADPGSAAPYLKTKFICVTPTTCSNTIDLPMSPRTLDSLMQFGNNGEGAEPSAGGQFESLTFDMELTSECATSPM
The compound `CC(C)C[C@H](NC(=O)/C=C/c1ccc(OP(=O)(O)O)cc1)C(=O)N1CCC[C@H]1C(=O)N[C@@H](CCC(N)=O)C(=O)NCc1ccccc1` had an IC50 of 135 nM.

For the compound `CC(C)C[C@H](NC(=O)/C=C/c1ccc(OP(=O)(O)O)cc1)C(=O)N1CCC[C@H]1C(=O)N[C@@H](COC(N)=O)C(=O)NCc1ccccc1`, half-maximal inhibition (IC50) required 379 nM. Compared with the last compound, the IC50 is about 2.8-fold higher.

`CC(C)C[C@H](NC(=O)/C=C/c1ccc(OP(=O)(O)O)cc1)C(=O)N1CCC[C@H]1C(=O)N[C@H](C(=O)NCc1ccccc1)[C@@H](C)OC(N)=O` came in with an IC50 of 850 nM. Against the preceding compound, the IC50 is about 2.2-fold higher.
